According to patent publication US9169252B2 (BRISTOL-MYERS SQUIBB COMPANY, priority 2014, dated 2015):
Read-outs that look alike come from different tables or passages of the source.

Tests used:
[1] = tested on: TLR2 induced IL-6 in peripheral blood mononuclear cells (PBMCs); experiment: PBMC TLR2 Induced IL-6 Assay; assay type: cell-based, human; conditions: IL-6 by ELISA; for EC50: read-out: Cell EC50; for IC50: read-out: Cell IC50
Procedure, shortened: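 Lipoteichoic acid at 10 µg/ml served as TLR2 stimulus for 5 hours, following a 30-minute compound pretreatment at 37° C. Cells were Ficoll-isolated human PBMCs, 250000 cells/well, cultured in RPMI plus 10% heat-inactivated FCS.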

IRAK4 = IRAK4 (Homo sapiens (Human), UniProt Q9NWZ3); experiment: IRAK4 Inhibition Assay; assay type: biochemical; conditions: ATP 500 μM, read-out: IRAK4 IC50
Procedure, shortened: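 IRAK4 combined with fluorescent substrate and compounds, reacted 60 min at room temperature, stopped with 35 mM EDTA. Substrate and phosphorylated product separated electrophoretically on a Caliper LabChip 3000 mobility-shift reader.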

[2] = Homo sapiens, PBMC, PBMC TLR2 Induced IL-6 Assay, lipoteichoic acid stimulation
[3] = Homo sapiens, PBMC, human PBMCs, lipoteichoic acid stimulated
[4] = human PBMCs, lipoteichoic acid stimulated

IRAK4, sequence (Q9NWZ3 whole entry, species assumed): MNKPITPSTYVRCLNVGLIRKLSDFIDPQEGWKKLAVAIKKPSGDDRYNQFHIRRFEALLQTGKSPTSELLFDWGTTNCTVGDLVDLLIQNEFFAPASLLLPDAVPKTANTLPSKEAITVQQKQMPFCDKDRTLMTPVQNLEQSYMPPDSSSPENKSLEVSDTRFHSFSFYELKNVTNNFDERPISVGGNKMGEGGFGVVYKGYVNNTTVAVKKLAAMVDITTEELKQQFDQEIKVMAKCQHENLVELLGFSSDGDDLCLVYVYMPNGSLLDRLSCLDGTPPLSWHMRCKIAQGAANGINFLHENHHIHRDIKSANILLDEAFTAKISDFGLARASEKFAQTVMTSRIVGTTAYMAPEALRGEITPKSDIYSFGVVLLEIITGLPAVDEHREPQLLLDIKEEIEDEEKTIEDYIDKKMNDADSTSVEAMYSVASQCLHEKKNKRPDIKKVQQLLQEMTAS

Row | Compound | EC50 [1, 2] [µM] | IC50 (IRAK4; IRAK4 Inhibition Assay) [µM] | IC50 (IRAK4; IRAK4 0.6 nM) [µM] | other results
1 | CC(C)(O)[C@H](F)CNC(=O)c1cnc(-n2ccc3cc(C#N)cnc32)cc1Nc1cccc(C#N)c1 [Example 66, (R)-6-(5-cyano-1H-pyrrolo[2,3-b]pyridin-1-yl)-4-((3-cyanophenyl)amino)-N-(2-fluoro-3-hydroxy-3-methylbutyl)nicotinamide] | 0.201 | 0.0017 |  | 
2 | CC(C)(O)[C@H](F)CNC(=O)c1cnc(-n2ccc3cc(Cl)cnc32)cc1NC1CCC1 [Example 31, (R)-6-(5-chloro-1H-pyrrolo[2,3-b]pyridin-1-yl)-4-(cyclobutylamino)-N-(2-fluoro-3-hydroxy-3-methylbutyl)nicotinamide] | 0.367 | 0.0034 |  | IC50 [1, 2]: 1.08 µM
3 | C[C@@H](CO)Nc1cc(-n2ccc3cc(C#N)cnc32)ncc1C(=O)NC[C@@H](F)C(C)(C)O [Example 9, 6-(5-cyano-1H-pyrrolo[2,3-b]pyridin-1-yl)-N—((R)-2-fluoro-3-hydroxy-3-methylbutyl)-4-(((S)-1-hydroxypropan-2-yl)amino) nicotinamide] | 0.057 | 0.0015 |  | IC50 [1, 2]: 0.043 µM
4 | CC(C)Nc1cc(-n2ncc3cc(C#N)cnc32)ncc1C(=O)N[C@H]1CC[C@H](C(C)(C)O)CC1 [Example 148, 6-(5-cyano-1H-pyrazolo[3,4-b]pyridin-1-yl)-N-((trans)-4-(2-hydroxypropan-2-yl)cyclohexyl)-4-(isopropylamino)nicotinamide] | 0.064 | 0.0014 |  | 
5 | 6-(5-cyano-1H-pyrrolo[2,3-b]pyridin-1-yl)-N—((S)-2-fluoro-3-hydroxy-3-methylbutyl)-4-((3-fluorotetrahydro-2H-pyran-4-yl)amino) nicotinamide [Example 108] |  | 0.0035 |  | EC50 ([1]; PBMC TLR2 Induced IL-6 Assay, lipoteichoic acid stimulation): 0.172 µM
6 | CC(C)(O)[C@H](F)CNC(=O)c1cnc(-n2ccc3cc(C#N)cnc32)cc1NC1CCC(NCC(F)(F)F)C1 (stereo partly drawn) [Example 488] |  |  | 0.0068 | EC50 [1, 3]: 0.208 µM; IC50 [1, 4]: 0.379 µM
7 | CC(C)Nc1cc(-n2cnc3cc(C#N)cnc32)ncc1C(=O)NC[C@@H](F)C(C)(C)F [Example 342] |  | 0.0087 |  | IC50 [1, 2]: 0.423 µM
8 | CC(C)Nc1cc(-n2ccc3cc(CNC(=O)CC4CCCCC4)cnc32)ncc1C(=O)NC[C@@H](F)C(C)(C)O [Example 511] |  |  | 0.0054 | IC50 [1, 3]: 0.047 µM
9 | CC(C)Nc1cc(-n2ccc3cc(C#N)cnc32)ncc1C(=O)NC1CCN(S(C)(=O)=O)CC1 [Example 447] |  |  | 0.0053 | EC50 [1, 3]: 0.092 µM
10 | CC(C)(O)[C@H](F)CNC(=O)c1cnc(-n2ccc3cc(C#N)cnc32)cc1Nc1ccc(-n2cccn2)cc1 [Example 67] | 0.102 | 0.0017 |  | 
11 | CC(C)(O)[C@H](F)CNC(=O)c1cnc(-n2ccc3cc(C#N)cnc32)cc1NC1CN(S(C)(=O)=O)C1 [Example 476] |  |  | 0.003 | EC50 [1, 3]: 0.198 µM
12 | CC(C)(O)[C@H](F)CNC(=O)c1cnc(-n2ncc3cc(C#N)cnc32)cc1NC1CCCOC1 (single isomer, unassigned) [Example 142] | 0.354 | 0.0114 |  | 
13 | CC(C)(O)CCNC(=O)c1cnc(-n2ccc3cncnc32)cc1NC1CCOCC1 [Example 43, N-(3-hydroxy-3-methylbutyl)-6-(7H-pyrrolo[2,3-d]pyrimidin-7-yl)-4-((tetrahydro-2H-pyran-4-yl)amino)nicotinamide] | 0.316 | 0.006 |  | 
14 | CC(C)Nc1cc(-n2ncc3cc(C#N)cnc32)ncc1C(=O)NC1CCN(S(=O)(=O)C(C)C)CC1 [Example 272] |  | 0.0051 |  | IC50 [1, 2]: 0.737 µM
15 | CC(C)(O)[C@H](F)CNC(=O)c1cnc(-n2ccc3cc(C(N)=O)cnc32)cc1NC1CCC1 [Example 124, (R)-1-(4-(Cyclobutylamino)-5-((2-fluoro-3-hydroxy-3-methylbutyl)carbamoyl)pyridin-2-yl)-1H-pyrrolo[2,3-b]pyridine-5-carboxamide] | 0.119 | 0.0048 |  | 
16 | CC(C)Nc1cc(-n2cnc3cnc(N)nc32)ncc1C(=O)NC[C@@H](F)C(C)(C)F [Example 346] |  | 0.0036 |  | IC50 [1, 2]: 0.306 µM
17 | CC(C)(O)[C@H](F)CNC(=O)c1cnc(-n2ccc3cc(C#N)cnc32)cc1Nc1cccc(O)c1 [Example 46, (R)-6-(5-cyano-1H-pyrrolo[2,3-b]pyridin-1-yl)-N-(2-fluoro-3-hydroxy-3-methylbutyl)-4-((3-hydroxyphenyl)amino)nicotinamide] | 0.023 | 0.0022 |  | 
18 | C[C@@H](F)CNc1cc(-n2ncc3cc(C#N)cnc32)ncc1C(=O)NC[C@@H](F)C(C)(C)O [Example 582] |  |  | 0.0038 | IC50 [1, 3]: 0.109 µM
19 | CC(C)Nc1cc(-n2ncc3cnc(N)nc32)ncc1C(=O)NC[C@@H](F)C(C)(C)O [Example 579] |  |  | 0.0039 | IC50 [1, 3]: 0.269 µM
20 | CC[C@@H](CO)Nc1cc(-n2ncc3cc(C#N)cnc32)ncc1C(=O)NC[C@@H](F)C(C)(C)O [Example 588] |  |  | 0.0044 | IC50 [1, 3]: 0.506 µM
21 | CC(C)(O)[C@H](F)CNC(=O)c1cnc(-n2ccc3cc(C#N)cnc32)cc1NC1CCCC(CO)C1 (single isomer, unassigned) [Example 445] |  |  | 0.0053 | EC50 [1, 3]: 0.108 µM

Row | Compound | EC50 [1, 2] [µM] | IC50 (IRAK4; IRAK4 Inhibition Assay) [µM] | IC50 (IRAK4; IRAK4 0.6 nM) [µM] | other results
22 | CC(C)(O)[C@H](F)CNC(=O)c1cnc(-n2ccc3cc(C#N)cnc32)cc1NC1COCC1(F)F (single isomer, unassigned) [Example 485] |  |  | 0.0087 | EC50 [1, 3]: 0.198 µM; IC50 [1, 4]: 1.08 µM
23 | CC(C)c1cc(Nc2cc(-n3ncc4cc(C#N)cnc43)ncc2C(=O)NC[C@@H](F)C(C)(C)O)[nH]n1 [Example 406] |  |  | 0.0048 | IC50 [1, 3]: 0.066 µM
24 | CC(C)Nc1cc(-n2ncc3cncnc32)ncc1C(=O)NC[C@@H](F)C(C)(C)O [Example 144, (R)—N-(2-fluoro-3-hydroxy-3-methylbutyl)-4-(isopropylamino)-6-(1H-pyrazolo[3,4-d]pyrimidin-1-yl)nicotinamide] | 0.148 | 0.0062 |  | 
25 | CC(C)Nc1cc(-n2ncc3cc(C#N)cnc32)ncc1C(=O)NCC(F)(F)C(C)(C)O [Example 167, 6-(5-Cyano-1H-pyrazolo[3,4-b]pyridin-1-yl)-N-(2,2-difluoro-3-hydroxy-3-methylbutyl)-4-(isopropylamino)nicotinamide] | 0.171 | 0.0105 |  | 
26 | CC(C)Nc1cc(-n2ncc3cc(C#N)cnc32)ncc1C(=O)NC[C@@H](F)C(C)(C)O [Example 133, (R)-6-(5-Cyano-1H-pyrazolo[3,4-b]pyridin-1-yl)-N-(2-fluoro-3-hydroxy-3-methylbutyl)-4-(isopropylamino)nicotinamide] | 0.12 | 0.0026 |  | 
27 | CC(C)Nc1cc(-n2ncc3cc(C#N)cnc32)ncc1C(=O)NCCCN1CCOCC1 [Example 201] | 0.583 | 0.0163 |  | 
28 | CC(C)Nc1cc(-n2ncc3cc(C#N)cnc32)ncc1C(=O)N[C@H]1CC[C@H](C(C)(C)O)C1 [Example 244] | 0.259 | 0.0063 |  | 
29 | CC(C)(O)[C@H](F)CNC(=O)c1cnc(-n2ccc3cc(C#N)cnc32)cc1N[C@@H]1CCN(c2ncc(F)cn2)C1 [Example 449] |  |  | 0.0015 | EC50 [1, 3]: 0.082 µM; IC50 [1, 3]: 0.059 µM
30 | CNC(=O)[C@H]1CC[C@H](NC(=O)c2cnc(-n3ncc4cc(C#N)c(N)nc43)cc2N[C@H]2CCCC[C@@H]2F)CC1 [Example 630] |  |  | 0.0022 | IC50 [1, 3]: 0.03 µM
31 | CC(C)Nc1cc(-n2ncc3cc(C#N)cnc32)ncc1C(=O)Nc1ccc(C(C)(C)O)cn1 [Example 236] | 0.323 | 0.0116 |  | 
32 | CC(C)(O)[C@H](F)CNC(=O)c1cnc(-n2ccc3cc(C#N)cnc32)cc1Nc1ccc2nn[nH]c2c1 [Example 436] |  |  | 0.0018 | EC50 [1, 3]: 0.165 µM
33 | CC(C)(O)[C@H](F)CNC(=O)c1cnc(-n2ncc3cc(C#N)cnc32)cc1Nc1cc(C2CC2)n[nH]1 [Example 404] |  |  | 0.0011 | IC50 [1, 3]: 0.164 µM
34 | CC(C)(O)[C@H](F)CNC(=O)c1cnc(-n2ncc3cc(Cl)cnc32)cc1Nc1cnn(CCC#N)c1 [Example 377] |  | 0.0027 |  | IC50 [1, 2]: 0.44 µM
35 | CC(C)Nc1cc(-n2ncc3cc(C#N)cnc32)ncc1C(=O)NCCN1CCOCC1 [Example 204] | 0.174 | 0.0049 |  | 
36 | CC(C)(O)[C@H](F)CNC(=O)c1cnc(-n2ncc3cc(C#N)cnc32)cc1N[C@H]1CC[C@H](NC2COC2)CC1 [Example 622] |  |  | 0.0052 | IC50 [1, 3]: 0.132 µM
37 | CC(C)(O)[C@H](F)CNC(=O)c1cnc(-n2ncc3cc(C#N)cnc32)cc1Nc1cnn(C2COC2)c1 [Example 348] |  | 0.0018 |  | IC50 [1, 2]: 0.489 µM
38 | CS(=O)(=O)NCCNC(=O)c1cnc(-n2ccc3cc(C#N)cnc32)cc1NC1CCOCC1 [Example 479] |  |  | 0.0057 | EC50 [1, 3]: 0.144 µM; IC50 [1, 3]: 0.835 µM
39 | CC(C)(O)[C@H](F)CNC(=O)c1cnc(-n2cnc3cc(C#N)cnc32)cc1NC1CCC1 [Example 338] |  | 0.0045 |  | IC50 [1, 2]: 0.147 µM
40 | CC(C)Nc1cc(-n2ncc3cc(C#N)cnc32)ncc1C(=O)NC1CCN(S(=O)(=O)NC(C)C)CC1 [Example 309] |  | 0.0184 |  | IC50 [1, 2]: 0.207 µM
41 | CCCn1cc(Nc2cc(-n3ncc4cc(C#N)cnc43)ncc2C(=O)NC[C@@H](F)C(C)(C)O)cn1 [Example 380] |  | 0.0029 |  | IC50 [1, 2]: 0.228 µM
42 | CC(C)Nc1cc(-n2ncc3cc(C#N)cnc32)ncc1C(=O)NCCC(C)(C)NS(C)(=O)=O [Example 306] |  | 0.0048 |  | IC50 [1, 2]: 0.8 µM
